Measurements published in patent US8808706B2, “Arthrospira-based compositions and uses thereof” (Biovite Australia Pty. Ltd., priority 2004, dated 2014).

System: Trichophyton mentagrophytes
Assay: Inhibitory test, filter paper disc on newly inoculated plate
Type: cell-based
Settings: FIG. 20
Description: Sabouraud's liquid medium was inoculated with the chosen pathogen. The broths were then incubated for one week at 28° C. […] Monographed actives not already in a cream base were mixed with a respective cream base. […] Up to four different discs were placed on a plate. The plate was then incubated for 24-48 hours at the appropriate temperature depending on the pathogen. Photos were then taken at the completion of the 24-48 hours.

Compound: Clc1ccc(COC(Cn2ccnc2)c2ccc(Cl)cc2Cl)c(Cl)c1 (stereo not shown) [miconazole]
- regrowth into clearance: became encroached by regrowth
